In paper PMC6161018, “Synthesis, Structure–Activity Relationships and In Vitro Toxicity Profile of Lactose-Based Fatty Acid Monoesters as Possible Drug Permeability Enhancers” (Pharmaceutics, 2018):
Several values for one entry are separate records, joined by “and”; a condition that tells them apart may be missing. Equal entries are not always repeated.

Columns and labels:
[1] = system: Calu-3 cells; assay: Lactate dehydrogenase (LDH) release assay; type: cell-based; conditions: Calu-3, 24 h exposure, 50% release of LDH; for IC50: Homo sapiens
Method: (§1) Caco-2 and Calu-3 cells were seeded in sterile 96-well culture plates at a density of 3 × 10^4 cells per well. Surfactant solutions (at the same concentration as in MTT assay described above) were added to the cells and incubated at 37 °C for 24 h. Triton X-100 at 1% v/v was used as positive control. LDH release assay was conducted according to the manufacturer’s protocol. The percentage of released LDH was calculated relative to the controls by taking samples treated with Triton X-100 as complete LDH release and untreated cells as nil LDH release.
(§2) The concentration of surfactant that caused a 50% release of LDH (IC50, mM), was calculated by fitting the experimental data with dose–response model (Prism 6, Version 6.0b, GraphPad Software).

[2] = system: Caco-2 cells; assay: Lactate dehydrogenase (LDH) release assay; type: cell-based; conditions: Caco-2, 24 h exposure, 50% release of LDH
Method: as §1, §2

[3] = system: Calu-3 cell monolayer; assay: Trans-epithelial electrical resistance (TEER) measurement; type: cell-based; conditions: Calu-3 monolayer, apical, 2 h, applied at MTT IC50 and at highest 100% viability concentration
Method: (§3) Caco-2 and Calu-3 cells were seeded at a density of 2 × 10^5 cells per well on filter inserts (Transwell® Permeable Support 12 mm Insert, Corning Life Sciences, Tewksbury, MA, USA) and cultured to confluence under air-liquid interface conditions. Culture media on the baso-lateral sides of the cells were changed every 24 h. For TEER measurements, culture medium was discarded from the cell layer and replaced with Kreb’s Balanced Saline Solutions (KBSS) on both the apical and baso-lateral sides of the monolayers. Cell layers were allowed equilibrating in KBSS at 37 °C, 5% CO2 for 45 min prior to sample application. Baseline TEER was measured before the treatment with surfactants. For each surfactant, concentrations that caused 50% cell viability, and the highest concentration that maintained 100% cell viability (according to the MTT assay) were added to the apical sides of the cell layers and incubated for 2 h. TEER was then measured at 5, 30, 60, 90 and 120 min after surfactant addition. Between TEER measurements, cells were incubated at normal cell culture conditions. After 120 min, surfactant was removed, and culture media were added to both sides of the filter inserts. TEER measurement was conducted again after 24 h to evaluate the recovery of cell monolayers. A volt-ohmmeter (Millcell® ERS-2 Voltohmmeter, Millipore, Burlington, MA, USA) equipped with a pair of electrodes was used for TEER measurement. Baseline TEER measured from cell layers incubated in KBSS was used as control and the change in TEER was presented as a percentage relative to baseline value. Three independent experiments were performed in duplicate.

[4] = system: Calu-3 cells; assay: MTT cell viability assay; type: cell-based; conditions: Calu-3, 24 h exposure, 50% reduction of viable cells; for IC50: Homo sapiens
Method: (§4) Caco-2 and Calu-3 cells were seeded in sterile 96-well culture plates at a density of 3 × 10^4 cells per well. The cells were incubated to attain at least 80% confluence before the experiment. Stock solutions of surfactants were prepared in phosphate buffered saline (PBS). They were diluted at various concentrations (from 0.0078 to 1 mg/mL) in cell culture medium before added to the cells. Complete culture media were used as control. The cytotoxic effect of each surfactant was evaluated using the MTT cell viability assay. After 24 h of incubation, surfactant solution was discarded and replaced by MTT solution (0.8 mg/mL). The cells were subjected to MTT treatment for 2 h. Formazan crystals formed were then dissolved in absolute isopropanol and incubated with gentle shaking at room temperature for 15 min. Absorbance was measured at 570 nm using a microplate reader (Multiskan™ GO Microplate Spectrophotometer Thermo Scientific, Waltham, MA, USA). Percentage of viable cells was calculated using untreated cells as control with 100% cell viability. The percentage of viable cells was plotted against log concentration of the surfactants. IC50 (mg/mL), the concentration of surfactant that caused a 50% reduction in cell viability was calculated by fitting the experimental data with dose–response model (Prism 6, Version 6.0b, GraphPad Software).

[5] = system: Caco-2 cells; assay: MTT cell viability assay; type: cell-based; conditions: Caco-2, 24 h exposure, 50% reduction of viable cells; for IC50: Homo sapiens
Method: as §4

[6] = Surface tension measurements (tensiometry), CMC determination; type: physicochemical; conditions: for Amin (minimum area per surfactant molecule): air-water interface, calculated from Γmax; for γCMC (surface tension at CMC) / CMC (critical micelle concentration): in water, room temperature; for CMC (critical micelle concentration): straight-line interception method; for Γmax × 10^−6 (maximum surface excess): values × 10^−6, Gibbs equation from surface tension plot
Method: Surface tension of different concentrations of surfactant solutions in water was measured using a platinum cylindrical rod probe with wetted length of 1.6 mm (K100-Krüss force tensiometer, Hamburg, Germany) at room temperature. Approximately 1 mL of each surfactant solution was placed onto a Teflon plate and the surface of the liquid was aspirated to remove any remaining impurities. Then, the rod probe was immersed 2 mm into the liquid. Data are expressed as the mean of three repeated measurements performed at room temperature. The critical micelle concentration and the surface tension at the CMC (γCMC) were calculated through the straight-line interception method, while the Gibbs surface excess (Γmax) was calculated from the following equation:(1) Γmax=1/2.303 × n × R × T (δγ/δlogC) where T is the absolute temperature, R is the gas constant (8.314 J/mol K), C is the surfactant concentration, n = 1 for a non-ionic candidate. δγ/δlogC was calculated from the maximum slope of the plot surface tension vs. surfactant concentration in the linear region before CMC.
The minimum area per surfactant molecule at the air-water interface (Amin) was determined as follow:(2) Amin= 10^18/N × Γmax where N is the Avogadro number.

[7] = system: Caco-2 cell monolayer; assay: Trans-epithelial electrical resistance (TEER) measurement; type: cell-based; conditions: Caco-2 monolayer, apical, 2 h; applied at MTT IC50 and at highest 100% viability concentration
Method: as §3

[8] = system: Calu-3 cells; assay: Mitochondrial membrane potential (JC-1 assay); type: cell-based; conditions: Calu-3, 24 h in HBSS, same concentrations compared
Method: (§5) Caco-2 and Calu-3 cells were seeded in sterile 96 well plates at a density of 1 × 10^4 cells per well and cultured for 24 h. As above, surfactant solutions were applied in Hank’s balanced salt solution (HBSS) for 24 h. One millimolar FCCP was employed as the positive, mitochondrial depolarizing control. Following exposure, treatments were removed and cells were washed twice with PBS prior to the addition of 50 µL (5 µg/mL) JC-1 dye diluted in complete DMEM (without antibiotics) per well for 15 min at 37 °C. Dye solution was then removed and wells washed with PBS followed by addition of 50 µL/well PBS prior to measuring fluorescence at 550/600 nm (λex/λem) for detection of JC-1 J-aggregates and 485/535 nm (λex/λem) for detection of JC-1 monomers. A ratio between JC-1 aggregates and JC-1 monomer signals was then taken, and data normalized by setting the untreated control as a value of 1.0 and the positive control (1.0 mM FCCP) as a value of 0.0.

[9] = system: Caco-2 cells; assay: Mitochondrial membrane potential (JC-1 assay); type: cell-based; conditions: Caco-2, 24 h in HBSS, same concentrations compared
Method: as §5

Compound | LDH Assay IC50 [1] | IC50 [1] [µM] | LDH Assay IC50 [2] | IC50 ([2]; Homo sapiens, Caco-2, 24 h) [µM] | effect on TEER [3] | effect on TEER ([3]; listed as lactose caprate) | MTT Assay IC50 [4] | IC50 [4] [µM] | MTT Assay IC50 [5] | IC50 [5] [µM] | Amin (minimum area per surfactant molecule) [6] [Å^2] | γCMC (surface tension at CMC) [6] [mN/m] | CMC (critical micelle concentration) [6] | γCMC (surface tension at CMC) ([6]; listed as lactose caprate) | Γmax × 10^−6 (maximum surface excess) [6] [mol/m^2] | effect on TEER [7] | γCMC (surface tension at CMC) ([6]; listed as lactose laurate) | IC50 [2] [µM] | mitochondrial membrane potential (J-aggregates:J-monomers ratio) [8] | mitochondrial membrane potential (J-aggregates:J-monomers ratio) [9]
CCCCCCCCCC(=O)OC[C@H]1O[C@@H](O[C@H]2[C@H](O)[C@@H](O)[C@@H](O)O[C@@H]2CO)[C@H](O)[C@@H](O)[C@H]1O [Lactose caprate, 6′-O-Decanoyl-4-O-(β-D-galactopyranosyl)-D-glucopyranose] | higher than the tested concentration range | > 2000 | higher than the tested concentration range | > 2000 | more significant decrease in TEER in Calu-3 cells compared to Caco-2 cells | only slightly affected the TEER | higher than the tested concentration range | > 2000 | higher than the tested concentration range | > 2000 | 17.46 ± 0.25 | 40.6 ± 0.04 | 2.58 ± 0.32 mM | around 40 mN/m | 9.52 ± 0.11 | – | – | – | – | –
CCCCCCCCCCCC(=O)OC[C@H]1O[C@@H](O[C@H]2[C@H](O)[C@@H](O)[C@@H](O)O[C@@H]2CO)[C@H](O)[C@@H](O)[C@H]1O [Lactose laurate, 6′-O-Dodecanoyl-4-O-(β-D-galactopyranosyl)-D-glucopyranose] | – | 452 | – | 597 | most effective surfactant in decreasing the TEER at both tested concentrations | – | – | 1070 | – | 376 | 17.45 ± 0.09 | 40.4 ± 0.02 | 0.55 ± 0.02 mM | – | 9.52 ± 0.05 | moderate reduction of TEER | around 40 mN/m | – | – | –
CCCCCCCCCCCCCC(=O)OC[C@H]1O[C@@H](O[C@H]2[C@H](O)[C@@H](O)[C@@H](O)O[C@@H]2CO)[C@H](O)[C@@H](O)[C@H]1O [Lactose myristate, 6′-O-Tetradecanoyl-4-O-(β-D-galactopyranosyl)-D-glucopyranose] | – | 189 | – | 194 | – | – | – | 261 | – | 112 | 19.86 ± 0.80 | 45.6 ± 0.19 | 0.14 ± 0.05 mM | – | 8.37 ± 0.46 | – | – | – | – | –
CCCCCCCCCCCCCCCC(=O)OC[C@H]1O[C@@H](O[C@H]2[C@H](O)[C@@H](O)[C@@H](O)O[C@@H]2CO)[C@H](O)[C@@H](O)[C@H]1O [Lactose palmitate, 6′-O-Esadecanoyl-4-O-(β-D-galactopyranosyl)-D-glucopyranose] | – | 142 | – | 194 | – | – | – | 122 | – | 60 | 25.69 ± 0.43 | 45.1 ± 0.33 | 0.08 mM and 0.08 ± 0.03 mM | – | 6.46 ± 0.11 | – | – | 163 | highest cytotoxic effect | highest cytotoxic effect
